Measured values published in US7378397B2 (The Provost, Fellows and Scholars of the College of the …, priority 2000, dated 2008).
“Also recorded” adds a separate entry of the source. One block for each compound: values may come before it. Where a SMILES comes first, the peptide text is derived from it. [ ]: non-standard residue; d: D form. The star is where a group is joined. AMC = Cc1cc(=O)oc2cc(N*)ccc12; pGlu = O=C1CC[C@@H](C(=O)O)N1; NHBn = c1ccc(CN*)cc1

Assays:
TRH-DE [1] = biological target: T1, TRH-DE (Sus scrofa, UniProt A0A287AP33); assay: continuous coupled fluorometric TRH-DE assay (TRHAMC substrate, DPP-IV coupling enzyme); format: biochemical, porcine; settings: for inhibition at 1000 µM: peptide 1 mM, 5 μM TRHAMC substrate
T1 construct: The inventor purified TRH-DE from porcine brain according to purification procedures previously published by Dr. K. Bauer; from tissue; host or cells: porcine brain (TRH-DE); bovine kidney (DPP-IV, gift from Dr. C. H. Williams)
Description: (§1) The inventor purified TRH-DE from porcine brain according to purification procedures previously published by Dr. K. Bauer, (Max-Planck-Institut, Hannover, Germany) (1). TRH-DE was purified almost 20,000 fold. […] Dipeptidyl peptidase IV (DPP-IV) (EC 3.4.14.5), purified from bovine kidney (7.7 mg ml^−1, specific activity of 17.5 U mg^−1 with Gly-ProAMC as substrate), was obtained as a gilt from Dr. C. H. Williams (Queen's University Belfast, U.K). (DPP-IV was used as the coupling enzyme used in the fluorometric assays).
(§2) One unit (U) of enzyme activity was defined as that amount catalysing the formation of one μmol of product in one minute under the standard conditions employed. All incubations in the assays described below were carried out in 20 mM potassium phosphate buffer, pH 7.5, at 37° C.
Kinetic analysis of peptides that are not hydrolysed by TRH-DE. A recently-developed continuous coupled fluorometric assay (23) was used to investigate the ability of those library peptides that were not hydrolysed by TRH-DE to inhibit TRHAMC degradation by TRH-DE. In this assay, TRHAMC is the substrate and dipeptidyl peptidase IV (DPP-IV) (EC 3.4.14.5) is the coupling enzyme. The reaction sequence is:
The reaction was monitored continuously by measuring the increase in AMC fluorescence. A linear progress curve with no discernible lag period was observed when the reaction was monitored over a period of 10 minutes. Nevertheless, data sampling was not commenced until 100 s from the start of the reaction to ensure measurements were taken after a steady state had been reached (see Ref. 23).
In a preliminary experiment, the peptides were screened for their ability to inhibit TRH-DE activity. The initial rate of TRHAMC hydrolysis by TRH-DE was measured by incubating 5 μM TRHAMC with 1.23 μg DPP-IV and 0.32 μg TRH-DE, both in the absence and presence of each library peptide (1 mM final concentration) under standard assay conditions (23). In each case the percentage inhibition (i%) was calculated using the equation i%=100(1-vi/vo), where vi and vo are the initial velocities in the presence and absence of peptide, respectively.
Since these peptides were poor inhibitors they were not examined further. The Ki values for the remainder of the peptides were determined by measuring their effects on TRHAMC degradation by TRH-DE using the continuous assay. Data were collected in duplicate at five different substrate concentrations and at least three different concentrations of each peptide.
Reversibility and time dependence of the inhibition produced by Glp-Gln-ProNH2, Glp-Asn-ProNH2 and Glp-Asn-ProAMC were examined by initially preincubating TRH-DE with each peptide at 37° C. for various periods up to 75 min. To investigate time dependence, the enzyme-peptide solution was subsequently added to the reaction mixture containing TRHAMC, DPP-IV, buffer and peptide, and TRH-DE activity was measured using the continuous assay. The final concentration of Glp-Gln-ProNH2, Glp-Asn-ProNH2 and Glp-Asn-ProAMC used was 400, 160 and 1 μM, respectively. […] TRH-DE activity was not affected by pre-incubation at 37° C.
Fluorescence measurements were made using a Perkin Elmer LS 50B Luminescence Spectrometer fitted with a thernostated cell holder. Wavelengths for excitation and emission were set at 370 nm and 440 nm, respectively, with slit widths of 10 nm and 5 nm, respectively.

TRH-DE [2] = biological target: T1, TRH-DE; assay: HPLC assay of peptide hydrolysis by TRH-DE (Glp production); format: biochemical, porcine; settings: 1 mM peptide incubated with TRH-DE 18 h at 37° C., HPLC
Description: as §1, §2
Kinetic analysis of the peptide library using HPLC—The ability of each peptide in the library to act as a TRH-DE substrate was assessed using HPLC. As an initial screen, 1 mM peptide was incubated with 0.8 μg TRH-DE in a total volume of 1 ml for 18 h at 37° C. Control samples were included in which peptide (1 mM) or Glp (0.2 mM-0.8 mM) were incubated under identical conditions in the absence of TRH-DE. TRH-DE activity was terminated by the addition of TFA (0.15% v/v) and samples were then analysed using HPLC as described previously (24). Products resulting from TRH-DE hydrolysis could be separated on a C-18 reverse-phase column (Hypersil, UK) using a linear gradient of 0-70% acetonitrile in 0.08% (v/v) TFA. The concentration of Glp formed by the action of TRH-DE on the peptide library was measured by UV absorbance at 206 nm with a quantitative detection limit of 0.1 mM for a 40 μl injection volume, employing a signal to noise ratio of 10. Following the incubation of each peptide with TRH-DE, evidence of Glp in the sample was taken to indicate that the peptide was a TRH-DE substrate.
The rates of hydrolysis for each of those peptides identified as substrates were then compared by measuring Gip production using microassays with shorter incubation times. In these assays peptide (1 mM) was incubated at 37° C. in a total volume of 100 μl. 0.8-3.2 μg TRH-DE and incubations times of 5 min to 18 h were used routinely. Measurements were made in triplicate. The rate of TRH-OH hydrolysis was also measured by this method.

[3] = calculated from percent inhibition measured in duplicate at 5 μM substrate
[4] = from the percent inhibition (n = 3) in the presence of 5 μM substrate
[5] = non-linear regression, five TRHAMC concentrations and at least three peptide concentrations, mean±S.D. (n=3)
[6] = estimated from <20% inhibition at 1 mM peptide with the competitive inhibition relationship

T1 sequence (A0A287AP33 1-1066): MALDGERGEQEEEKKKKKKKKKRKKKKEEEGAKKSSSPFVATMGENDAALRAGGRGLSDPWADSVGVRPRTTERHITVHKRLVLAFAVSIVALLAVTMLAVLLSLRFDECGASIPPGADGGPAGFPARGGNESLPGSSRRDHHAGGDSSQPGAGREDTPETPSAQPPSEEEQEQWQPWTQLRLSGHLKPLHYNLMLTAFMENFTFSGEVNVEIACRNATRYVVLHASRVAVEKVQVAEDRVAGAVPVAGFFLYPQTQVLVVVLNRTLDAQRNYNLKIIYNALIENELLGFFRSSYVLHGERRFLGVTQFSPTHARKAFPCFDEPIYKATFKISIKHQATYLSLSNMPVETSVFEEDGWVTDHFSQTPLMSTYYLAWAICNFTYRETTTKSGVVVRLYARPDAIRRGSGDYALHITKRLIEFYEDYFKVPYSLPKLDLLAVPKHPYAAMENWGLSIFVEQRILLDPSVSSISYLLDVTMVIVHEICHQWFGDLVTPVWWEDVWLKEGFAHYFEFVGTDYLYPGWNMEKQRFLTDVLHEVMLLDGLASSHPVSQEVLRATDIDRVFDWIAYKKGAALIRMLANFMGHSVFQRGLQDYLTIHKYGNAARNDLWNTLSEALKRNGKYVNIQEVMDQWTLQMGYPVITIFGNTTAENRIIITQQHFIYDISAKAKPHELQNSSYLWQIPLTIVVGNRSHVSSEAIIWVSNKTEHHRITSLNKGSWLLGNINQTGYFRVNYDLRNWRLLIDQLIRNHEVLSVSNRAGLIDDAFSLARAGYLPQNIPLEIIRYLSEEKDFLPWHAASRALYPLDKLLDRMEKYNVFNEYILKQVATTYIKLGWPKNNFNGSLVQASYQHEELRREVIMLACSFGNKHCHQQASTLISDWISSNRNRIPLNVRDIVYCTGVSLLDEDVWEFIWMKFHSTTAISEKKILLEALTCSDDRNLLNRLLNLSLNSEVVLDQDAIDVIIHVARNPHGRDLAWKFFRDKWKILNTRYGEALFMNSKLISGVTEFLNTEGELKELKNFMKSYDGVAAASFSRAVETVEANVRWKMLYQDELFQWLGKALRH

Compound: NC(=O)C[C@H](NC(=O)[C@@H]1CCC(=O)N1)C(=O)N1CCC[C@H]1C(=O)Nc1ccccc1O
Ki (TRH-DE [1]; [3]): 6.62 µM

Compound: NC(=O)C[C@H](NC(=O)[C@@H]1CCC(=O)N1)C(=O)N1CCC[C@H]1C(=O)Nc1cccc2c1CCCC2
Ki (TRH-DE [1]; [3]): 9.31 µM

Compound: Cc1cc(=O)oc2cc(NC(=O)[C@H](Cc3c[nH]c4ccccc34)NC(=O)[C@@H]3CCCN3C(=O)[C@H](CC(N)=O)NC(=O)[C@@H]3CCC(=O)N3)ccc12 [Glp-Asn-Pro-Trp-AMC] ([pGlu]NPW-{AMC})
Ki (TRH-DE [1]; [4]): 0.08 µM

Compound: NC(=O)C[C@H](NC(=O)[C@@H]1CCC(=O)N1)C(=O)N1CCC[C@H]1C(=O)N[C@@H](Cc1c[nH]c2ccccc12)C(N)=O [Glp-Asn-Pro-Trp-NH2] ([pGlu]NPW-NH2)
Ki (TRH-DE [1]; [4]): 5.17 µM

Compound: NC(=O)C[C@H](NC(=O)[C@@H]1CCC(=O)N1)C(=O)N1CCC[C@H]1C(=O)N[C@@H](Cc1c[nH]c2ccccc12)C(=O)N[C@@H](CO)C(=O)N[C@@H](Cc1ccc(O)cc1)C(N)=O [Glp-Asn-Pro-Trp-Ser-Tyr-NH2] ([pGlu]NPWSY-NH2)
Ki (TRH-DE [1]; [4]): 8.11 µM

Compound: NC(=O)C[C@H](NC(=O)[C@@H]1CCC(=O)N1)C(=O)N1CCC[C@H]1C(=O)N[C@@H](Cc1c[nH]c2ccccc12)C(=O)N[C@@H](Cc1ccc(O)cc1)C(N)=O [Glp-Asn-Pro-Trp-Tyr-NH2] ([pGlu]NPWY-NH2)
Ki (TRH-DE [1]; [4]): 5.91 µM

Compound: Cc1cc(=O)oc2cc(NC(=O)[C@H](Cc3c[nH]c4ccccc34)NC(=O)[C@H](Cc3ccc(O)cc3)NC(=O)[C@@H]3CCCN3C(=O)[C@H](CC(N)=O)NC(=O)[C@@H]3CCC(=O)N3)ccc12 [Glp-Asn-Pro-Tyr-Trp-AMC] ([pGlu]NPYW-{AMC})
Ki (TRH-DE [1]; [5]): 0.04 µM

Compound: NC(=O)C[C@H](NC(=O)[C@@H]1CCC(=O)N1)C(=O)N1CCC[C@H]1C(=O)N[C@@H](Cc1ccc(O)cc1)C(=O)N[C@@H](Cc1c[nH]c2ccccc12)C(N)=O [Glp-Asn-Pro-Tyr-Trp-NH2] ([pGlu]NPYW-NH2)
Ki (TRH-DE [1]; [4]): 0.78 µM

Continued, in another order:

Ki (TRH-DE [1]; [3]): 63.2 µM
Compound: NC(=O)C[C@H](NC(=O)[C@@H]1CCC(=O)N1)C(=O)N1CCC[C@H]1C(=O)NC1CCCc2ccccc21 (single isomer, unassigned)

Ki (TRH-DE [1]; [3]): 22.4 µM
Compound: NC(=O)C[C@H](NC(=O)[C@@H]1CCC(=O)N1)C(=O)N1CCC[C@H]1C(=O)NC1CCCc2ccccc21 (single isomer, unassigned) [1,2,3,4-tetrahydro-1-naphthylamide isomer 2]

Ki (TRH-DE [1]; [3]): 9.95 µM
Compound: COc1ccc(Cl)cc1NC(=O)[C@@H]1CCCN1C(=O)[C@H](CC(N)=O)NC(=O)[C@@H]1CCC(=O)N1 [5-chloro-2-methoxy anilide]

Ki (TRH-DE [1]; [3]): 11.9 µM
Compound: NC(=O)C[C@H](NC(=O)[C@@H]1CCC(=O)N1)C(=O)N1CCC[C@H]1C(=O)NCc1ccccc1 [Benzylamide] ([pGlu]-Asn-Pro-NHBn)

Ki (TRH-DE [1]; [4]): 10.3 µM
Compound: NC(=O)C[C@H](NC(=O)[C@@H]1CCC(=O)N1)C(=O)N1CCC[C@H]1C(=O)N[C@@H](Cc1ccc(O)cc1)C(N)=O [Glp-Asn-Pro-Tyr-NH2] ([pGlu]NPY-NH2)

hydrolysis by TRH-DE (release of Glp) (TRH-DE [2]): No detectable Glp
Ki (TRH-DE [1]; [6]): > 1000 µM
inhibition at 1000 µM (TRH-DE [1]): 1%
Compound: NC(=O)[C@@H]1CCCN1C(=O)[C@H](CC(=O)O)NC(=O)[C@@H]1CCC(=O)N1 [Glp-Asp-ProNH2] ([pGlu]-Asp-Pro-NH2)

hydrolysis by TRH-DE (release of Glp) (TRH-DE [2]): No detectable Glp
Ki (TRH-DE [1]; [6]): > 1000 µM
inhibition at 1000 µM (TRH-DE [1]): 2%
Compound: NC(=O)C[C@@H](NC(=O)[C@@H]1CCC(=O)N1)C(=O)N1CCC[C@H]1C(N)=O [Glp-D-Asn-ProNH2] ([pGlu]-[dN]-Pro-NH2)

Ki (TRH-DE [1]; [5]): 69 ± 4.4 µM
inhibition at 1000 µM (TRH-DE [1]): 83%
reversibility and time dependence of inhibition (TRH-DE [1]; preincubation with TRH-DE up to 75 min at 37° C., Glp-Gln-ProNH2 400, Glp-Asn-ProNH2 160, Glp-Asn-ProAMC 1 μM): fully reversible and not time-dependent
Compound: NC(=O)CC[C@H](NC(=O)[C@@H]1CCC(=O)N1)C(=O)N1CCC[C@H]1C(N)=O [Glp-Gln-ProNH2] ([pGlu]-Gln-Pro-NH2)
hydrolysis by TRH-DE (release of Glp) (TRH-DE [2]): not hydrolyzed at all; also recorded: No detectable Glp

hydrolysis by TRH-DE (release of Glp) (TRH-DE [2]): No detectable Glp
Ki (TRH-DE [1]; [6]): > 1000 µM
inhibition at 1000 µM (TRH-DE [1]): 8%
Compound: NC(=O)[C@@H]1CCCN1C(=O)CNC(=O)[C@@H]1CCC(=O)N1 [Glp-Gly-ProNH2] ([pGlu]-Gly-Pro-NH2)
